Assay results as given in PMC9088073, “Discovery of 2-Phenylquinolines with Broad-Spectrum Anti-coronavirus Activity” (ACS Medicinal Chemistry Letters, 2022).
Read-outs that look alike come from different tables or passages of the source. Marks after values point to notes of the source that are not given here.

Key:
SARS-CoV-2 = experiment: microbe, parasite or virus in culture; assay type: cell-based
HCoV-229E = experiment: microbe, parasite or virus in culture; assay type: cell-based; conditions: Human coronavirus 229E, HEL 299, read-out: HCoV-229E EC50
HCoV-OC43 = experiment: microbe, parasite or virus in culture; assay type: cell-based; conditions: Betacoronavirus 1, OC43, HEL 299, read-out: HCoV-OC43 EC50
in vitro [1] = conditions: chlorocebus sabaeus
in vitro [2] = conditions: human
SARS-CoV-2 nsp13 ATPase = SARS-CoV-2 nsp13 ATPase (Severe acute respiratory syndrome coronavirus 2, UniProt P0DTD1); assay type: biochemical; conditions: for IC50: read-out: helicase ATPase IC50
SARS-CoV-2 nsp12 RdRp = SARS-CoV-2 nsp12 RdRp (Severe acute respiratory syndrome coronavirus 2, UniProt P0DTD1); experiment: SARS-CoV-2 nsp12 RdRp activity, fluorescent-based assay; assay type: biochemical; conditions: in the presence of the highest concentration of tested compound (30 μM); read-out: RdRp percentage of control
[3] = target: SARS-CoV-2 nsp13 helicase (Severe acute respiratory syndrome coronavirus 2, UniProt P0DTD1); experiment: biochemical; assay type: biochemical; conditions: for IC50: SARS-CoV-2 nsp13 helicase-associated activity, read-out: helicase unwinding IC50
VeroE6 cells = conditions: uninfected VeroE6 cells, MTS assay; mean ± SD of duplicate experiments
[4] = Severe acute respiratory syndrome coronavirus 2, […], mean ± SD of duplicate experiments, read-out: Anti-SARS-CoV-2 activity EC50
[5] = […], mean ± SD of duplicate experiments
[6] = SARS-CoV-2 nsp13 ATPase-associated activity
[7] = in the presence of the highest concentration of tested compound (30 μM; 3 μM for SSYA10-001)
[8] = Severe acute respiratory syndrome coronavirus 2, read-out: Anti-SARS-CoV-2 activity EC50, primary screening

| Structure (SMILES) | EC50 (SARS-CoV-2; [4]) [µM] | CC50 (in vitro [1]) [µM] | further results |
| --- | --- | --- | --- |
| CCCOc1ccc(-c2cc(OCCN(CC)CC)c3c(OC)ccc(OC)c3n2)cc1 [Compound 7a] | 4.6 ± 0.2 | 24.6 ± 0.1 | EC50 (HCoV-229E): 0.7 ± 0.3 µM; EC50 (HCoV-OC43): 2 ± 0.2 µM; CC50 (in vitro [2]): 9.9 ± 0.8 µM |
| CCCOc1ccc(-c2cc(OCCCN(C)C)c3cc(OC)ccc3n2)cc1 [Compound 3b] | > 100 | – | – |
| CCN(CC)CCOc1cc(-c2ccccc2)nc2ccccc12 [Compound 12a] | > 100 | 64.7 ± 29.8 | Anti-SARS-CoV-2 activity EC50 (SARS-CoV-2; [5]): loss of activity |
| N#C[C@@]1(c2ccc3c(N)ncnn23)O[C@H](CO)[C@@H](O)[C@H]1O [GS-441524, reference compound] | 0.7 ± 0.07 | – | EC50 (HCoV-229E): 0.9 ± 0.1 µM; CC50 (in vitro [2]): > 100 µM |
| CCCOc1ccc(-c2cc(OCc3ccccn3)c3ccccc3n2)cc1 [Compound 1e] | > 100 | – | – |
| NC(=O)c1ccc(Oc2ccc(C(N)=O)cc2)cc1 [OUL-355] | – | – | EC50 (SARS-CoV-2; read-out: Anti-SARS-CoV-2 activity EC50, primary screening): > 100 µM |
| CCCOc1ccc(-c2cc(OC3CC4CCN3CC4)c3ccccc3n2)cc1 (stereo not shown) [Compound 1d] | > 100 | – | – |
| C=CCn1c(S)nnc1CSc1ccccc1[N+](=O)[O-] [SSYA10-001, reference compound] | – | – | helicase ATPase percentage of control (SARS-CoV-2 nsp13 ATPase): >3 (90%) ^d; IC50 (SARS-CoV-2 nsp13 ATPase): > 3 µM |
| CCCOc1ccc(-c2cc(OCCN(CC)CC)c3c(OC)cc(OC)cc3n2)cc1 [Compound 6a] | > 100 | 6.71 ± 3.5 | – |
| CCCOc1ccc(-c2cc(OCCN3Cc4ccccc4C3)c3c(OC)cc(OC)cc3n2)cc1 [Compound 6o, 4-[2-(1,3-Dihydro-2H-isoindol-2-yl)ethoxy]-5,7-dimethoxy-2-(4-propoxyphenyl)quinoline] | > 100 | > 100 | Anti-SARS-CoV-2 activity EC50 (SARS-CoV-2; [5]): devoid of any activity |
| CCCOc1ccc(-c2cc(OCCN3CCc4cc(OC)c(OC)cc4C3)c3c(OC)cc(OC)cc3n2)cc1 [Compound 6g] | 8.8 ± 5.6 | > 100 | EC50 (HCoV-229E): 2.9 ± 0.05 µM; EC50 (HCoV-OC43): 1.5 ± 0.1 µM; remaining activity at 30 µM (SARS-CoV-2 nsp12 RdRp): 62%; IC50 [3]: 0.42 ± 0.23 µM; IC50 (SARS-CoV-2 nsp13 ATPase; [6]): > 30 µM; helicase ATPase percentage of control (SARS-CoV-2 nsp13 ATPase; [7]): 90% |
| CCCOc1ccc(-c2cc(OCCN3CCc4cc(OC)ccc4C3)c3c(OC)cc(OC)cc3n2)cc1 [Compound 6m, 5,7-Dimethoxy-4-[2-(6-methoxy-3,4-dihydroisoquinolin-2(1H)-yl)ethoxy]-2-(4-propoxyphenyl)quinoline] | > 100 | > 100 | Anti-SARS-CoV-2 activity EC50 (SARS-CoV-2; [5]): devoid of any activity |
| CCCOc1ccc(-c2cc(OCCN3CCCC3)c3c(OC)cc(OC)cc3n2)cc1 [Compound 6j] | > 100 | 16.1 ± 17 | – |
| CCCOc1ccc(-c2cc(OCCN3CCc4ccccc4C3)c3c(OC)cc(OC)cc3n2)cc1 [Compound 6n, 4-[2-(3,4-Dihydroisoquinolin-2(1H)-yl)ethoxy]-5,7-dimethoxy-2-(4-propoxyphenyl)quinoline] | > 100 | > 100 | Anti-SARS-CoV-2 activity EC50 (SARS-CoV-2; [5]): devoid of any activity |
| CCCOc1ccc(-c2cc(OCCCN(C)C)c3ccccc3n2)cc1 [Compound 1b] | > 100 | – | – |
| CCCOc1ccc(-c2cc(OCCN3CCNCC3)c3cccc(OC)c3n2)cc1 [Compound 5i] | 7.1 ± 4.2 | 30.3 ± 0.8 | EC50 (HCoV-229E): 0.3 ± 0.05 µM; EC50 (HCoV-OC43): 1.7 ± 0.2 µM; CC50 (in vitro [2]): 8 ± 1.3 µM |
| CCCOc1ccc(-c2cc(OCCN(CC)CC)c3cc(OC)c(OC)cc3n2)cc1 [Compound 8a] | 5.1 ± 1.4 | 70.3 ± 23.7 | EC50 (HCoV-229E): 1.8 ± 0.4 µM; EC50 (HCoV-OC43): 1.9 ± 0.4 µM; CC50 (in vitro [2]): 9.2 ± 0.1 µM |
| CCCOc1ccc(-c2cc(C(=O)NCCN(CC)CC)c3ccccc3n2)cc1 [Compound 11l] | > 100 | – | Anti-SARS-CoV-2 activity EC50 (SARS-CoV-2; [5]): loss of activity |
| CCCOc1ccc(-c2cc(OCCN(Cc3ccccc3)Cc3ccccc3)c3ccccc3n2)cc1 [Compound 1c] | > 100 | – | – |

| Structure (SMILES) | EC50 (SARS-CoV-2; [4]) [µM] | CC50 (in vitro [1]) [µM] | further results |
| --- | --- | --- | --- |
| CCCOc1ccc(-c2cc(OCCN(CC)CC)c3c(OC)cccc3n2)cc1 [Compound 2a] | > 100 | – | – |
| CCCOc1ccc(-c2cc(OCCN3CCc4cc(OC)c(OC)cc4C3)c3ccc(OC)cc3n2)cc1 [Compound 4g] | > 40 | – | – |
| CCCOc1ccc(-c2cc(OCCN3CCN(Cc4ccccc4)CC3)c3cc(OC)cc(OC)c3n2)cc1 [Compound 9f] | > 100 | > 100 | VeroE6 cells CC50 (VeroE6 cells): lacked cytotoxicity |
| CCCOc1ccc(-c2cc(OCCN3CCN(Cc4ccccc4)CC3)c3ccccc3n2)cc1 [Compound 1f] | 11.9 ± 5.5 | > 100 | EC50 (HCoV-229E): 61.3 ± 32.2 µM; EC50 (HCoV-OC43): 92.3 ± 11 µM; VeroE6 cells CC50 (VeroE6 cells): lacked cytotoxicity; CC50 (in vitro [2]): > 100 µM |
| CCCOc1ccc(-c2cc(OCCN3CCCC3)c3cccc(OC)c3n2)cc1 [Compound 5j] | > 100 | 30.8 ± 0.1 | – |
| CCCOc1ccc(-c2cc(OCCN(CC)CC)c3ccccc3n2)cc1 [Compound 1a] | 6.5 ± 0.05 | 21.2 ± 4.2 | EC50 (SARS-CoV-2; [8]): 6 µM |
| CCCOc1ccc(-c2cc(O)c3ccccc3n2)cc1 [Compound 1] | > 100 | – | Anti-SARS-CoV-2 activity EC50, primary screening (SARS-CoV-2): completely inactive |
| c1ccc(-c2cc(OCCN3CCCCC3)c3ccccc3n2)nc1 [Compound 14k] | > 100 | – | Anti-SARS-CoV-2 activity EC50 (SARS-CoV-2; [5]): loss of activity |
| CCCOc1ccc(-c2cc(OCCN3CCCC3)c3c(OC)ccc(OC)c3n2)cc1 [Compound 7j] | 11.3 ± 2.1 | 89.8 ± 2.8 | EC50 (HCoV-229E): 0.6 ± 0.3 µM; EC50 (HCoV-OC43): 1.8 ± 0.7 µM; CC50 (in vitro [2]): 8.7 ± 0.8 µM |
| CCCOc1ccc(-c2cc(OCCn3cccc3)c3ccccc3n2)cc1 [Compound 1h] | > 100 | – | – |
| CCCOc1ccc(-c2cc(OCCN3CCCCC3)c3cc(OC)c(OC)cc3n2)cc1 [Compound 8k] | 2.6 ± 1.4 | 11.1 ± 1.3 | EC50 (HCoV-229E): 0.2 ± 0.2 µM; EC50 (HCoV-OC43): 1.6 ± 0.2 µM; CC50 (in vitro [2]): 12.3 ± 1.1 µM |
| CCCOc1ccc(-c2cc(OCCN3CCCC3)c3cc(OC)c(OC)cc3n2)cc1 [Compound 8j] | 9.6 ± 2.2 | 12.9 ± 4.8 | – |
| CCCOc1ccc(-c2cc(OCCN3CCc4cc(OC)c(OC)cc4C3)c3ccccc3n2)cc1 [Compound 1g] | > 100 | – | – |
| CCCOc1ccc(-c2cc(OCCN3CCCC3)c3cc(OC)cc(OC)c3n2)cc1 [Compound 9j] | 5.9 ± 2.4 | > 100 | EC50 (HCoV-229E): 40 ± 20.8 µM; EC50 (HCoV-OC43): 22.7 ± 2.8 µM; remaining activity at 30 µM (SARS-CoV-2 nsp12 RdRp): 100%; IC50 [3]: > 30 µM; remaining activity at 30 µM ([3]; in the presence of the highest concentration of tested compound (30 μM), read-out: helicase unwinding percentage of control): 57%; IC50 (SARS-CoV-2 nsp13 ATPase; [6]): > 30 µM; helicase ATPase percentage of control (SARS-CoV-2 nsp13 ATPase; [7]): 100%; CC50 (in vitro [2]): > 100 µM |
| COc1cc(O)c2c(=O)cc(-c3ccc(OCCCN4CCN(C)CC4)c(N)c3)n(C)c2c1 [WRNA10] | – | 40 | EC50 (SARS-CoV-2; [8]): 10 µM |
| CCN(CC)CCOc1cc(-c2ccc(Cl)s2)nc2ccccc12 [Compound 13a] | > 100 | – | Anti-SARS-CoV-2 activity EC50 (SARS-CoV-2; [5]): loss of activity |
| CCCOc1ccc(-c2cc(OCCN(CC)CC)c3cccc(OC)c3n2)cc1 [Compound 5a] | 9.1 ± 3.05 | > 100 | EC50 (HCoV-229E): 1.3 ± 0.9 µM; EC50 (HCoV-OC43): 0.6 ± 0.1 µM; CC50 (in vitro [2]): 10.4 ± 0.8 µM |
| CCCOc1ccc(-c2cc(OCCN(CC)CC)c3cc(OC)cc(OC)c3n2)cc1 [Compound 9a] | 13 ± 10 | > 100 | EC50 (HCoV-229E): 3.5 ± 2.7 µM; EC50 (HCoV-OC43): 2.2 ± 0.5 µM; CC50 (in vitro [2]): 43.5 ± 5.6 µM |
| CCCOc1ccc(-c2cc(OCCN(CC)CC)c3c(OC)c(OC)c(OC)cc3n2)cc1 [Compound 10a] | 8.3 ± 1.8 | 23.8 ± 8.3 | – |
